# Results as given in patent US20070207993A1, “Molybdenum carbonyl complexes for treating rheumatoid arthritis and other inflammatory diseases” (Alfama - Investigacao e Desenvolvimetno De Productos …, priority 2005, published 2007).
# Tests used:
# [1] = Spontaneous CO release from suspensions (gas chromatography, TCD); assay type: physicochemical; settings: suspension in RPMI with 10% FBS, 37° C., dark
# Procedure: CO detection was carried out by Gas Chromatography using a thermal conductivity detector (TCD) for the quantification of CO and CO2. The experiments were done under an initial atmosphere of reconstituted air, free of CO and CO2. […] […] Samples were withdrawn with gas-tight Hamilton syringes after homogenization of the head-space at given time intervals, preferably 2 hours, 4 hours and 6 hours. […] The volumes of CO released are usually in the range between 0.5-3 mL.
# As a possible result of the use of suspensions, the number of CO equivalents released in RPMI varied slightly. As an example of the possible variations, the average of eight independent assays done with suspensions of Compound I.1 is given in Table 2.
# [2] = CO release in the presence of reactive oxygen species (TBHP, H2O2, KO2); assay type: physicochemical; settings: 25° C., dark; for Equivalents of CO2 released, H2O2 / Equivalents of CO released, H2O2: H2O2 100:1, water; for Equivalents of CO2 released, TBHP / Equivalents of CO released, TBHP: TBHP 100:1, water
# Procedure: The studies were done using the same method and apparatus described in Example 7 with the following modifications: RPMI/FBS was replaced by double distilled water in the experiments with H2O2 and TBHP and by tetrahydrofuran (THF) for the experiments with KO2; the temperature was kept at 25° C. The concentration of Compound I.1 was approximately 1 mM and the ration of concentrations of H2O2, TBHP and KO2 relative to Compound I.1 was 100:1. The amount of CO2 generated was also measured in the same experiment to ascertain the concurrent oxidation of coordinated CO. TBHP was added from a 70% aqueous solution and H2O2 from a 30% aqueous solution.
# rat arthritis model = settings: previously shown, US 2003/0068387; cited from earlier work
smiles,measurement,setting,value
O=[C][Mo]([I])([C]=O)([C]=O)([C]=O)[C]=O [Compound I.6],"Equivalents of CO released, RPMI",[1]; 2 hours,0.42 equivalents of CO
same,"Equivalents of CO released, RPMI",[1]; 4 hours,1.00 equivalents of CO
same,"Equivalents of CO released, RPMI",[1]; 6 hours,1.25 equivalents of CO
same,"Equivalents of CO2 released, H2O2",[2]; 1 h,0.14 equivalents
same,"Equivalents of CO released, H2O2",[2]; 1 h,1.31 equivalents
same,"Equivalents of CO2 released, H2O2",[2]; 3 h,0.44 equivalents
same,"Equivalents of CO released, H2O2",[2]; 3 h,3.04 equivalents
same,"Equivalents of CO2 released, H2O2",[2]; 5 h,0.51 equivalents
same,"Equivalents of CO released, H2O2",[2]; 5 h,3.20 equivalents
same,"Equivalents of CO2 released, H2O2",[2]; 24 h,0.35 equivalents
same,"Equivalents of CO released, H2O2",[2]; 24 h,1.91 equivalents
same,"Equivalents of CO2 released, TBHP",[2]; 1 h,0.00 equivalents
same,"Equivalents of CO released, TBHP",[2]; 1 h,0.48 equivalents
same,"Equivalents of CO2 released, TBHP",[2]; 3 h,0.24 equivalents
same,"Equivalents of CO released, TBHP",[2]; 3 h,1.75 equivalents
same,"Equivalents of CO2 released, TBHP",[2]; 5 h,0.55 equivalents
same,"Equivalents of CO released, TBHP",[2]; 5 h,3.51 equivalents
same,"Equivalents of CO2 released, TBHP",[2]; 24 h,0.99 equivalents
same,"Equivalents of CO released, TBHP",[2]; 24 h,4.29 equivalents
"O=[C][Mo]([I])([C]=O)([C]=O)([C]=O)[C]=O [Compound I.16, K(diglyme)3 [Mo(CO)5I]]","Equivalents of CO released, RPMI",[1]; 2 hours,0.94 equivalents of CO
same,"Equivalents of CO released, RPMI",[1]; 4 hours,1.20 equivalents of CO
same,"Equivalents of CO released, RPMI",[1]; 6 hours,1.28 equivalents of CO
"O=[C][Mo]([I])([C]=O)([C]=O)([C]=O)[C]=O [Compound I.18, [NH4](diglyme)3[Mo(CO)5I]]","Equivalents of CO released, RPMI",[1]; 2 hours,0.55 equivalents of CO
same,"Equivalents of CO released, RPMI",[1]; 4 hours,0.73 equivalents of CO
same,"Equivalents of CO released, RPMI",[1]; 6 hours,0.79 equivalents of CO
ClCCl [Methylene chloride],effects in a rat arthritis model,rat arthritis model,beneficial effects
